# Assay results reported in patent US8334107B2, “Detection systems utilizing supported lipid bilayers” (priority 2005, dated 2012).
# Key:
# [1] = Lipid bilayers on MS-PPE as barriers to superquenching by AQS, flow cytometry; type: physicochemical; conditions: 10 μM AQS
# Description: Small unilamellar vesicles (SUVs) were prepared using a 2 mM solution of DPPC, 1 mM egg-PC, or 2 mM DMPG in chloroform. The lipid was dried by nitrogen gas followed by vacuum. The dried lipid was resuspended in phosphate buffer saline (PBS), pH 7.4, and incubated at 37° C. for 10 min, then sonicated to optical clarity in a sonication bath (Branson Cleaning Equipment Co., Shelton, Conn.).
# Lipid bilayers were assembled on microspheres as previously described (Buranda et al. Langmuir 19:1654-1663 (2003); Bayerl & Bloom, Biophys J 58:357-362 (1990)). Briefly, the small unilamellar vesicles were incubated at 37° C. for 5 min, and PPE-coated microspheres were added to them, and mixed at room temperature using a vortex mixer for 30 min, followed by incubation at 37° C. for 5 min without mixing. The lipid-coated PPE-coated microspheres were washed by suspension in PBS followed by centrifugation, where the clear supernatant was decanted and discarded. The cycle of resuspension, centrifugation, and decanting, was repeated four additional times. Finally, the lipid-coated PPE-coated microspheres were resuspended in PBS.
# (§1) Bead suspensions of 2.5×10^5 PPE-coated microspheres in 200 μL PBS were analyzed using a FACScan flow cytometer (Becton-Dickinson, Sunnyvale, Calif.) with excitation at 488 nm. Fluorescence signals were acquired on the FL-1 channel (525 nm) using log amplification and analyzed with the CellQuest software.
# The feasibility of using the zwitterionic lipids DPPC and egg-PC to form supported lipid bilayers on MS-PPE was assessed (FIG. 15). […] Addition of AQS produced an almost 40% reduction of the polymer fluorescence, yet the fluorescence of the DPPC bilayer coated MS-PPE in the presence of the AQS quencher was still almost 10-fold higher than that of MS-PPE and quencher without the lipid.
# The PPE polymer is positively charged. […] However when using 2 mM DMPG, the modulation of polymer fluorescence was relatively small (FIG. 15). […] Thus, upon addition of quencher to MS-PPE after treatment with DMPG ˜70% of fluorescence of the PPE was retained (FIGS. 16A and 16B).
# [2] = tested on: EPC bilayer on porous silica beads; assay: Suspension study: release of fluorescein dye from lipid bilayer coated porous silica beads; type: biochemical
# Description: Lipid coatings on beads were disrupted using 10% Triton X-100. Each sample in micro-centrifuge tubes contained 5 mg of lipid bilayer coated, fluorescein entrapped beads in 200 μL of Tris buffer. Samples were centrifuged and 100 μL aliquots of supernatant were mixed with either 100 μL of Tris buffer or 100 μL of 10% Triton X-100® detergent in separate centrifuge tubes. The fluorescence intensity of each mixture was immediately (time=0) recorded. Each mixture was mixed with its respective bead sample in centrifuge tube and incubated at 25° C. in the dark. After 30 min, samples were centrifuged and fluorescent intensity of the supernatants was measured. Beads were resuspended in their respective supernatants. Fluorescence intensity was again measured at 90 and 150 min.
# Experimental procedures were similar to the Triton X-100® detergent based analysis. For experiments with α-toxin, three different toxin concentrations: 15, 45 and 250 μg/mL were used at 37° C. and 25° C. Beads coated with EPC were used. In the experiments with melittin, 220 μM melittin was used with beads coated with either 100% EPC, 10:90 (molar ratio) mixture of DMPG and EPC or an 80:20 mixture of DMPG and DMPC. All melittin experiments were conducted at 25° C.
# Previous suspension studies on disruption of lipid bilayers have been performed with small unilamellar vesicles where disruption of the lipid bilayer membranes was detected by monitoring the unquenching of a highly concentrated, encapsulated dye. In the present work disruption was monitored via release of fluorescein dye from porous beads, by measuring the increase in fluorescence intensity of the supernatant at 520 nm. Beads were first suspended in Tris buffer containing the disruptor. After selected time periods, beads were sedimented by centrifuging and a portion of the supernatant was taken for the measurement. The measured portion was added back to the bead sample to permit continuous monitoring. The scattering effect that was present in vesicle based studies was minimized by measuring only the supernatant after centrifugation of the beads.
# [3] = tested on: DMPG lipid bilayer on MS-PPE; assay: Disruption of DMPG lipid bilayer on MS-PPE detected by superquenching with AQS, flow cytometry; type: biochemical
# Description: Lipid bilayers were disrupted by adding Triton X-100® detergent to the bead suspension to a final concentration of 0.25% (w/v).
# as §1
# Bead suspensions of 2.5×10^5 DMPG-coated MS-PPE in 200 μL of PBS were analyzed using a FACScan flow cytometer (Becton-Dickinson, Sunnyvale, Calif.) with excitation at 488 nm. Fluorescence signals were acquired on FL-1 channel (525 nm) using log amplification and analyzed with the CellQuest software. Kinetic analysis of disruption of supported lipid bilayer by melittin was performed by acquiring real-time data with continuous mixing of samples (10^6 MS-PPE in 800 μl of PBS) using a magnetic stirrer. The raw data were analyzed using IDL Query software developed by Bruce Edwards (Cancer Center, University of New Mexico, Albuquerque, N. Mex.).
# Because an anionic lipid was used to form a lipid bilayer around MS-PPE, it was expected that MLT will disrupt the DMPG lipid bilayer by such a detergent-like action. This was tested by adding 10 μM AQS to DMPG-coated MS-PPE followed by treatment with one of the following: Triton X-100® detergent, synthetic MLT (sMLT), or natural MLT (nMLT) and immediately reading the fluorescence by flow cytometry. […] These histograms resemble the ones reported previously for MS-PPE, without a lipid coating, in absence and in presence of AQS.
# The kinetics of disruption of supported lipid bilayer by MLT were monitored by measuring real-time changes in fluorescence intensity by flow cytometry (FIG. 19). Suspensions of 10^6 DMPG-coated MS-PPE in 800 μL of PBS were treated with AQS at a final concentration of 10 μM, then with either sMLT, Triton X-100® detergent, or no treatment. […] Treatment with sMLT in the absence of AQS led to an increase in normalized fluorescence (FIG. 19, trace A). This can be attributed to disruption of the lipid bilayer by sMLT, and is consistent with a reversal of the slight quenching of fluorescence caused by the formation of a DMPG lipid bilayer over MS-PPE. Addition of AQS alone to DMPG-coated MS-PPE (FIG. 19, trace C) led to a 20% reduction in fluorescence as reported earlier. Addition of Triton X-100® detergent to DMPG-coated MS-PPE after the addition of AQS (first dip in trace E, FIG. 19) caused immediate decrease in fluorescence to ˜10% of its original value (second dip in trace E, FIG. 19). In contrast, addition of sMLT, after the addition of AQS, (FIG. 19, trace D) led to a gradual reduction of fluorescence intensity to ˜20% of the original value. Although MLT forms dimers at high concentrations (Dempsey, C. E. Biochim. Biophys. Acta 1990, 1031, 143-161), it is monomeric at the concentrations used in this study. On the other hand, Triton X-100® detergent forms micelles at the concentration used in this study.
# [4] = tested on: lipid membranes on porous silica beads (containing fluorescein dye); assay: Microfluidic study: detection of membrane interaction by release of dye from bead packed microcolumn; type: biochemical
# Description: To create a packed microcolumn of lipid coated beads containing fluorescein, 2 μL of silica bead (diameter=20 μm) containing suspension (0.05 mg/μL) was injected into a microfluidic channel by applying vacuum at the outlet port of the microchannel, followed by the injection of 10 μL of fluorescein-entrapped bead (diameter=10 μm) containing suspension (0.05 mg/μL). The bead packed microchannel was mounted onto a vertical translational stage located in the sample holder space of the fluorimeter. Just below the bead segment, the microchannel was irradiated with an Argon ion laser (λ=488 nm, 8-10 mW) excitation. The inlet of the column was connected to a buffer reservoir while the outlet was connected to a vacuum source. As the fluorescence intensity at 520 nm was monitored, several microliters of Tris buffer was passed through the microchannel before the injection of Triton X-100® detergent. […]
# The packed segment was about 2 mm long. The disruption of the membranes on porous silica beads (containing fluorescein dye) by Triton X-100® detergent was detected by monitoring the release of the dye from the beads, at a point just below the bead segment as indicated in FIG. 7B. […] The microcolumn was irradiated at 488 nm and fluorescence intensity was monitored at 520 nm. […]
# [5] = 0.25% (w/v) Triton X-100, 10 μM AQS
molecule,measurement,setting,value
"CCCCCCCCCCCCCC(=O)OC[C@H](COP(=O)([O-])OCC(O)CO)OC(=O)CCCCCCCCCCCCC.[Na+] (mixture of isomers) [DMPG, 1,2-dimyristoyl-sn-glycero-3-[phosphor-rac-(1-glycerol)] sodium salt]",fluorescence of the PPE retained upon addition of quencher,[1]; 2 mM DMPG,~70%
"CCCCCCCCCCCCCCCC(=O)OC[C@H](COP(=O)([O-])OCC[N+](C)(C)C)OC(=O)CCCCCCCCCCCCCCC [DPPC, 1,2-dipalmitoyl-sn-glycero-3-phosphatidylcholine]",fluorescence with AQS relative to MS-PPE and quencher without the lipid,[1],~10 fold
same,reduction (quenching) of polymer fluorescence on addition of AQS,[1]; lipid coated MS-PPE,~40%
Triton X-100,increase in fluorescence intensity of the supernatant,"[2]; 10% Triton X-100, first 30 min, 25° C.",more than 70 fold
same,increase in fluorescence intensity (total disruption of bilayers),[2]; Triton X-100 added after 150 min of α-toxin exposure,50 fold
same,"fluorescence after bilayer disruption, of the fluorescence of DMPG-coated MS-PPE in the absence of quencher",[3]; [5],~18%
same,"fluorescence after bilayer disruption, of the original fluorescence value",[3]; [5],~10%
same,"fluorescence intensity, of the original value","[3]; real-time kinetics, added after 10 μM AQS (traces D, E)",~10%
same,initial signal (1st peak) less than that observed in suspension studies,"[4]; 10% Triton X-100, microcolumn versus suspension",~80%
same,increase in fluorescence intensity at detection point,"[4]; 10 μL of 10% Triton X-100, about 5 min no flow incubation",25 fold
